Consider 15 compounds from patent US11986532B2 (Arvinas Operations, Inc., priority 2021, dated 2024).

The assay addresses T1, BCL6 (Homo sapiens, UniProt P41182).
T1 construct: endogenous in cells; host or cells: T47D breast cancer epithelial cells
Briefly: Immunofluorescence protocol for high content imaging of BCL6 (degradation) in T47D cells, 3 days compound treatment. The conditions noted are these: for DC50: read-out: Mean DC50 (nM)* category; for Dmax: read-out: Mean Dmax (%)** category. It is filed as cell-based. The gist of the method: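 Read-out: high-content imaging of anti-BCL6 immunofluorescence (Alexa-488 secondary) with CellMask and Hoechst counterstains, 10×, 4 fields/well. Cells had 3 days of compound exposure at 37° C, 5% CO2, 11-point 3-fold series from a final top of 0.1 or 1 μM.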

The mark [1] stands for this setting: T47D cells, 3 days compound treatment.

Where two headings read alike, the source gives them in different places.

The term DC50 denotes the concentration giving 50% degradation. Usually Dmax stands for the greatest extent of degradation seen. Regarding `CNC(=O)COc1cc2cc(Nc3nc(N4CCC(O[C@H]5C[C@H](N6CC[C@@H](c7ccc8c(c7F)CN([C@H]7CCC(=O)NC7=O)C8=O)C(C)(C)C6)C5)CC4)ncc3Cl)ccc2n(C(C)C)c1=O` [Compound 209, 2-({6-[(5-chloro-2-{4-[(1r,3r)-3-[(4R)-4-{2-[(3S)-2,6-dioxopiperidin-3-yl]-4-fluoro-1-oxo-2,3-dihydro-1H-isoindol-5-yl}-3,3-dimethylpiperidin-1-yl]cyclobutoxy]piperidin-1-yl}pyrimidin-4-yl)amino]-2-oxo-1-(propan-2-yl)-1,2-dihydroquinolin-3-yl}oxy)-N-methylacetamide], under setting [1], the DC50 is below 10 nM and the Dmax is at least 70%.

For `CC[C@H]1CN([C@H]2C[C@H](OC3CCN(c4ncc(Cl)c(Nc5ccc6c(c5)cc(OCC(=O)NC)c(=O)n6C(C)C)n4)CC3)C2)CCN1c1ccc2c(c1Cl)CN(C1CCC(=O)NC1=O)C2=O` (stereo partly drawn) [Compound 196, 2-({6-[(5-chloro-2-{4-[(1r,3r)-3-[(3S)-4-[4-chloro-2-(2,6-dioxopiperidin-3-yl)-1-oxo-2,3-dihydro-1H-isoindol-5-yl]-3-ethylpiperazin-1-yl]cyclobutoxy]piperidin-1-yl}pyrimidin-4-yl)amino]-2-oxo-1-(propan-2-yl)-1,2-dihydroquinolin-3-yl}oxy)-N-methylacetamide], under setting [1], the DC50 was below 10 nM and the Dmax is at least 70%.

As to `CNC(=O)COc1cc2cc(Nc3nc(N4CCC(N5CCC56CN(C5CCN(c7ccc8c(c7)C(=O)N(C7CCC(=O)NC7=O)C8=O)CC5)C6)CC4)ncc3Cl)ccc2n(C(C)C)c1=O` (stereo not drawn) [Compound 220, 2-{[6-({5-chloro-2-[4-(6-{1-[2-(2,6-dioxopiperidin-3-yl)-1,3-dioxo-2,3-dihydro-1H-isoindol-5-yl]piperidin-4-yl}-1,6-diazaspiro[3.3]heptan-1-yl)piperidin-1-yl]pyrimidin-4-yl}amino)-2-oxo-1-(propan-2-yl)-1,2-dihydroquinolin-3-yl]oxy}-N-methylacetamide], the DC50 lay within 10 to 50 nM. Moreover, the Dmax (T47D) fell in the range of 50 to 70%.

As for `CNC(=O)COc1cc2cc(Nc3nc(N4CCC(O[C@H]5C[C@H](N6CC7(CCN7c7ccc8c(c7)CN(C7CCC(=O)NC7=O)C8=O)C6)C5)CC4)ncc3Cl)ccc2n(C(C)C)c1=O` (stereo partly drawn) [Compound 309, 2-({6-[(5-chloro-2-{4-[(1r,3r)-3-{1-[2-(2,6-dioxopiperidin-3-yl)-1-oxo-2,3-dihydro-1H-isoindol-5-yl]-1,6-diazaspiro[3.3]heptan-6-yl}cyclobutoxy]piperidin-1-yl}pyrimidin-4-yl)amino]-2-oxo-1-(propan-2-yl)-1,2-dihydroquinolin-3-yl}oxy)-N-methylacetamide], the DC50 was below 10 nM. The Dmax (T47D) lay in the range of 50 to 70%.

As for `CNC(=O)COc1cc2cc(Nc3nc(N4CCC(O[C@H]5C[C@H](N6CCC(c7cc(OC)c8c(c7F)CN([C@H]7CCC(=O)NC7=O)C8=O)CC6)C5)CC4)ncc3Cl)ccc2n(C(C)C)c1=O` [Compound 407, 2-({6-[(5-chloro-2-{4-[(1r,3r)-3-(4-{2-[(3S)-2,6-dioxopiperidin-3-yl]-4-fluoro-7-methoxy-1-oxo-2,3-dihydro-1H-isoindol-5-yl}piperidin-1-yl)cyclobutoxy]piperidin-1-yl}pyrimidin-4-yl)amino]-2-oxo-1-(propan-2-yl)-1,2-dihydroquinolin-3-yl}oxy)-N-methylacetamide], the DC50 was below 10 nM. Moreover, the Dmax (T47D) was at least 70%.

Turning to `CNC(=O)COc1cc2cc(Nc3nc(N4CCC(CN5CCC6(CC5)CCN6c5ccc6c(c5)CN(C5CCC(=O)NC5=O)C6=O)CC4)ncc3Cl)ccc2n(C(C)C)c1=O` (stereo not drawn) [Compound 336, 2-{[6-({5-chloro-2-[4-({1-[2-(2,6-dioxopiperidin-3-yl)-1-oxo-2,3-dihydro-1H-isoindol-5-yl]-1,7-diazaspiro[3.5]nonan-7-yl}methyl)piperidin-1-yl]pyrimidin-4-yl}amino)-2-oxo-1-(propan-2-yl)-1,2-dihydroquinolin-3-yl]oxy}-N-methylacetamide], the 50% degradation concentration (DC50) is below 10 nM. Further, the Dmax (T47D) is at least 70%.

As to `CNC(=O)COc1cc2cc(Nc3nc(N4CCC(O[C@H]5C[C@H](N6CCN(c7ccc8c(c7C)C(=O)N(C7CCC(=O)NC7=O)C8=O)[C@H](C)C6)C5)CC4)ncc3Cl)ccc2n(C(C)C)c1=O` (stereo partly drawn) [Compound 193, 2-({6-[(5-chloro-2-{4-[(1r,3r)-3-[(3R)-4-[2-(2,6-dioxopiperidin-3-yl)-4-methyl-1,3-dioxoisoindol-5-yl]-3-methylpiperazin-1-yl]cyclobutoxy]piperidin-1-yl}pyrimidin-4-yl)amino]-1-isopropyl-2-oxoquinolin-3-yl}oxy)-N-methylacetamide], under setting [1], the DC50 was below 10 nM and the Dmax is at least 70%.

`CNC(=O)COc1cc2cc(Nc3nc(N4CCC(OC5CN([C@H]6CC[C@H](c7ccc8c(c7F)CN(C7CCC(=O)NC7=O)C8=O)CC6)C5)CC4)ncc3Cl)ccc2n(C(C)C)c1=O` (stereo partly drawn) [Compound 183, 2-{[6-({5-chloro-2-[4-({1-[(1r,4r)-4-[2-(2,6-dioxopiperidin-3-yl)-4-fluoro-1-oxo-2,3-dihydro-1H-isoindol-5-yl]cyclohexyl]azetidin-3-yl}oxy)piperidin-1-yl]pyrimidin-4-yl}amino)-2-oxo-1-(propan-2-yl)-1,2-dihydroquinolin-3-yl]oxy}-N-methylacetamide]: under setting [1], the DC50 is below 10 nM and the Dmax was at least 70%.

As for `CNC(=O)COc1cc2cc(Nc3nc(N4CCC(C(C)(C)N5CCC6(CC5)CN(c5cc(OC)cc7c5CN(C5CCC(=O)NC5=O)C7=O)C6)CC4)ncc3Cl)ccc2n(C(C)C)c1=O` (stereo not drawn) [Compound 328, 2-{[6-({5-chloro-2-[4-(2-{2-[2-(2,6-dioxopiperidin-3-yl)-6-methoxy-1-oxo-2,3-dihydro-1H-isoindol-4-yl]-2,7-diazaspiro[3.5]nonan-7-yl}propan-2-yl)piperidin-1-yl]pyrimidin-4-yl}amino)-2-oxo-1-(propan-2-yl)-1,2-dihydroquinolin-3-yl]oxy}-N-methylacetamide], the DC50 was below 10 nM. Moreover, the Dmax (T47D) fell in the range of 50 to 70%.

`CNC(=O)COc1cc2cc(Nc3nc(N4CCN(CC5CC6(CCN(c7ccc8c(c7)CN(C7CCC(=O)NC7=O)C8=O)CC6)C5)CC4)ncc3Cl)ccc2n(C(C)C)c1=O` (stereo not drawn) [Compound 6, 2-{[6-({5-chloro-2-[4-({7-[2-(2,6-dioxopiperidin-3-yl)-1-oxo-2,3-dihydro-1H-isoindol-5-yl]-7-azaspiro[3.5]nonan-2-yl}methyl)piperazin-1-yl]pyrimidin-4-yl}amino)-2-oxo-1-(propan-2-yl)-1,2-dihydroquinolin-3-yl]oxy}-N-methylacetamide]: under setting [1], the DC50 is below 10 nM and the Dmax lay in the range of 50 to 70%.

On to `CNC(=O)COc1cc2cc(Nc3nc(N4CCC(O[C@H]5C[C@H](N6CCC7(CN(c8ccc9c(c8F)CN(C8CCC(=O)NC8=O)C9=O)C7)C6)C5)CC4)ncc3Cl)ccc2n(C(C)C)c1=O` (stereo partly drawn) [Compound 405, 2-({6-[(5-chloro-2-{4-[(1r,3r)-3-{2-[2-(2,6-dioxopiperidin-3-yl)-4-fluoro-1-oxo-2,3-dihydro-1H-isoindol-5-yl]-2,6-diazaspiro[3.4]octan-6-yl}cyclobutoxy]piperidin-1-yl}pyrimidin-4-yl)amino]-2-oxo-1-(propan-2-yl)-1,2-dihydroquinolin-3-yl}oxy)-N-methylacetamide], for which the DC50 is below 10 nM. Also, for the setting “T47D”, the Dmax was at least 70%.

`CNC(=O)COc1cc2cc(Nc3nc(N4CCC(OC5CCC6(CC5)CN(c5ccc(OC)c7c5CN(C5CCC(=O)NC5=O)C7=O)C6)CC4)ncc3Cl)ccc2n(C(C)C)c1=O` (stereo not drawn) [Compound 304, 2-{[6-({5-chloro-2-[4-({2-[2-(2,6-dioxopiperidin-3-yl)-7-methoxy-1-oxo-2,3-dihydro-1H-isoindol-4-yl]-2-azaspiro[3.5]nonan-7-yl}oxy)piperidin-1-yl]pyrimidin-4-yl}amino)-2-oxo-1-(propan-2-yl)-1,2-dihydroquinolin-3-yl]oxy}-N-methylacetamide]: the DC50 is below 10 nM. Also, the Dmax (T47D) lay in the range of 50 to 70%.

Regarding `CNC(=O)COc1cc2cc(Nc3nc(N4CCC(O[C@H]5C[C@H](N6[C@@H](C)CN(c7ccc8c(c7)C(=O)N(C7CCC(=O)NC7=O)C8=O)C[C@@H]6C)C5)CC4)ncc3Cl)ccc2n(C(C)C)c1=O` (stereo partly drawn) [Compound 253, 2-({6-[(5-chloro-2-{4-[(1r,3r)-3-[(2S,6S)-4-[2-(2,6-dioxopiperidin-3-yl)-1,3-dioxo-2,3-dihydro-1H-isoindol-5-yl]-2,6-dimethylpiperazin-1-yl]cyclobutoxy]piperidin-1-yl}pyrimidin-4-yl)amino]-2-oxo-1-(propan-2-yl)-1,2-dihydroquinolin-3-yl}oxy)-N-methylacetamide], the DC50 lay in the range of 10 to 50 nM. Moreover, the Dmax (T47D) was at least 70%.

With `CNC(=O)COc1cc2cc(Nc3nc(N4CCC(N5CCC6(CN(CC7CCN(c8ccc9c(c8)CN(C8CCC(=O)NC8=O)C9=O)CC7)C6)C5)CC4)ncc3Cl)ccc2n(C(C)C)c1=O` (stereo not drawn) [Compound 236, 2-({6-[(5-chloro-2-{4-[2-({1-[2-(2,6-dioxopiperidin-3-yl)-1-oxo-2,3-dihydro-1H-isoindol-5-yl]piperidin-4-yl}methyl)-2,6-diazaspiro[3.4]octan-6-yl]piperidin-1-yl}pyrimidin-4-yl)amino]-2-oxo-1-(propan-2-yl)-1,2-dihydroquinolin-3-yl}oxy)-N-methylacetamide], the DC50 is below 10 nM. Besides, where the note is “T47D”, the Dmax lay within 50 to 70%.

`CNC(=O)COc1cc2cc(Nc3nc(N4CCN(CC5CCN(c6c(F)ccc7c6CN(C6CCC(=O)NC6=O)C7=O)CC5)CC4)ncc3Cl)ccc2n(C(C)C)c1=O` (stereo not drawn) [Compound 297, 2-{[6-({5-chloro-2-[4-({1-[2-(2,6-dioxopiperidin-3-yl)-5-fluoro-1-oxo-2,3-dihydro-1H-isoindol-4-yl]piperidin-4-yl}methyl)piperazin-1-yl]pyrimidin-4-yl}amino)-2-oxo-1-(propan-2-yl)-1,2-dihydroquinolin-3-yl]oxy}-N-methylacetamide]: the DC50 is below 10 nM. Besides, the Dmax (T47D) was 50 to 70%.
